Reference: PubChem BioAssay (NCI)
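Five compound concentrations were applied to cells in 96-well plates for 48 hours; endpoints were derived by simple linear interpolation of the resulting dose-response curve. At the GI50, growth is halved. The concentration for full growth arrest is given as TGI.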

What was measured:
Assay in all cases: NCI-60 cell line screen, 48 h
[1] = system: 786-0 renal
[2] = system: A498 renal
[3] = system: A549 NSCLC
[4] = system: ACHN renal
[5] = system: BT-549 breast
[6] = system: CAKI-1 renal
[7] = system: CCRF-CEM leukemia
[8] = system: COLO 205 colon
[9] = system: DU-145 prostate
[10] = system: EKVX NSCLC
[11] = system: HCC-2998 colon
[12] = system: HCT-116 colon
[13] = system: HCT-15 colon
[14] = system: HOP-62 NSCLC
[15] = system: HOP-92 NSCLC
[16] = system: HT29 colon
[17] = system: IGROV1 ovarian
[18] = system: K-562 leukemia
[19] = system: KM12 colon
[20] = system: LOX IMVI melanoma
[21] = system: M14 melanoma
[22] = system: MALME-3M melanoma
[23] = system: MCF7 breast
[24] = system: MDA-MB-231 breast
[25] = system: MDA-MB-435
[26] = system: MOLT-4 leukemia
[27] = system: NCI-H226 lung
[28] = system: NCI-H23 lung
[29] = system: NCI-H460 lung
[30] = system: NCI-H522 lung
[31] = system: NCI/ADR-RES ovarian
[32] = system: OVCAR-4 ovarian
[33] = system: OVCAR-5 ovarian
[34] = system: OVCAR-8 ovarian
[35] = system: PC-3 prostate
[36] = system: RPMI-8226 leukemia
[37] = system: RXF 393 renal
[38] = system: SF-268 CNS
[39] = system: SF-295 CNS
[40] = system: SF-539 CNS
[41] = system: SK-MEL-2 melanoma
[42] = system: SK-MEL-28 melanoma
[43] = system: SK-MEL-5 melanoma
[44] = system: SK-OV-3 ovarian
[45] = system: SN12C renal
[46] = system: SNB-19 CNS
[47] = system: SNB-75 CNS
[48] = system: SR leukemia
[49] = system: SW-620 colon
[50] = system: T-47D breast
[51] = system: TK-10 renal
[52] = system: U251 CNS
[53] = system: UACC-257 melanoma
[54] = system: UACC-62 melanoma
[55] = system: UO-31 renal

Q: Which GI50 [1] does the source give for `CCCCCc1ccc(S(=O)(=O)Nc2cc(-c3csc(NC(=O)CN4CCN(CCO)CC4)n3)ccc2OC)cc1` here?
A: 1850 nM

Q: And the TGI [1]?
A: 3390 nM

Q: And the GI50 [2]?
A: 1580 nM

Q: What about the TGI [2] of the same molecule?
A: 2950 nM

Q: And the GI50 [3]?
A: 1890 nM

Q: And the TGI [3]?
A: 4180 nM

Q: What about the GI50 [4] of the same molecule?
A: 1810 nM

Q: And the TGI [4]?
A: 3280 nM

Q: What about the GI50 [5] of the same molecule?
A: 1550 nM

Q: And the TGI [5]?
A: 3100 nM

Q: What about the GI50 [6] of the same molecule?
A: 1620 nM

Q: What about the TGI [6] of the same molecule?
A: 3320 nM

Q: What about the GI50 [7] of the same molecule?
A: 2540 nM

Q: What about the TGI [7] of the same molecule?
A: 7830 nM

Q: What about the GI50 [8] of the same molecule?
A: 1610 nM

Q: What about the TGI [8] of the same molecule?
A: 3110 nM

Q: What about the GI50 [9] of the same molecule?
A: 1890 nM

Q: What about the TGI [9] of the same molecule?
A: 3600 nM

Q: What about the GI50 [10] of the same molecule?
A: 1690 nM

Q: And the TGI [10]?
A: 3590 nM

Q: And the GI50 [11]?
A: 1930 nM

Q: What about the TGI [11] of the same molecule?
A: 3800 nM

Q: And the GI50 [12]?
A: 1720 nM

Q: And the TGI [12]?
A: 3240 nM

Q: And the GI50 [13]?
A: 1860 nM

Q: What about the TGI [13] of the same molecule?
A: 3650 nM

Q: What about the GI50 [14] of the same molecule?
A: 1660 nM

Q: What about the TGI [14] of the same molecule?
A: 3180 nM

Q: And the GI50 [15]?
A: 1500 nM

Q: What about the TGI [15] of the same molecule?
A: 3000 nM

Q: What about the GI50 [16] of the same molecule?
A: 1890 nM

Q: And the TGI [16]?
A: 3750 nM

Q: And the GI50 [17]?
A: 1920 nM

Q: What about the TGI [17] of the same molecule?
A: 4010 nM

Q: What about the GI50 [18] of the same molecule?
A: 2690 nM

Q: What about the TGI [18] of the same molecule?
A: > 100000 nM

Q: What about the GI50 [19] of the same molecule?
A: 1920 nM

Q: What about the TGI [19] of the same molecule?
A: 3700 nM

Q: What about the GI50 [20] of the same molecule?
A: 1730 nM

Q: What about the TGI [20] of the same molecule?
A: 3240 nM

Q: And the GI50 [21]?
A: 1710 nM

Q: And the TGI [21]?
A: 3240 nM

Q: What about the GI50 [22] of the same molecule?
A: 1640 nM

Q: What about the TGI [22] of the same molecule?
A: 3150 nM

Q: And the GI50 [23]?
A: 1620 nM

Q: And the TGI [23]?
A: 3200 nM

Q: And the GI50 [24]?
A: 1940 nM

Q: What about the TGI [24] of the same molecule?
A: 3830 nM

Q: And the GI50 [25]?
A: 1700 nM

Q: What about the TGI [25] of the same molecule?
A: 3210 nM

Q: And the GI50 [26]?
A: 3170 nM

Q: And the TGI [26]?
A: 10600 nM

Q: What about the GI50 [27] of the same molecule?
A: 1900 nM

Q: And the TGI [27]?
A: 3880 nM

Q: And the GI50 [28]?
A: 1930 nM

Q: And the TGI [28]?
A: 4380 nM

Q: And the GI50 [29]?
A: 1840 nM

Q: What about the TGI [29] of the same molecule?
A: 3460 nM

Q: What about the GI50 [30] of the same molecule?
A: 1860 nM

Q: What about the TGI [30] of the same molecule?
A: 3580 nM

Q: What about the GI50 [31] of the same molecule?
A: 3490 nM

Q: What about the TGI [31] of the same molecule?
A: 14100 nM

Q: And the GI50 [32]?
A: 2050 nM

Q: What about the TGI [32] of the same molecule?
A: 5120 nM

Q: And the GI50 [33]?
A: 2190 nM

Q: What about the TGI [33] of the same molecule?
A: 5440 nM

Q: What about the GI50 [34] of the same molecule?
A: 1820 nM

Q: What about the TGI [34] of the same molecule?
A: 3520 nM

Q: And the GI50 [35]?
A: 2680 nM

Q: What about the TGI [35] of the same molecule?
A: 7880 nM

Q: And the GI50 [36]?
A: 1780 nM

Q: What about the TGI [36] of the same molecule?
A: 4280 nM

Q: What about the GI50 [37] of the same molecule?
A: 1380 nM

Q: What about the TGI [37] of the same molecule?
A: 3010 nM

Q: And the GI50 [38]?
A: 1700 nM

Q: And the TGI [38]?
A: 3400 nM

Q: And the GI50 [39]?
A: 1890 nM

Q: And the TGI [39]?
A: 3740 nM

Q: What about the GI50 [40] of the same molecule?
A: 1540 nM

Q: What about the TGI [40] of the same molecule?
A: 2950 nM

Q: And the GI50 [41]?
A: 1780 nM

Q: And the TGI [41]?
A: 3360 nM

Q: And the GI50 [42]?
A: 1770 nM

Q: And the TGI [42]?
A: 3250 nM

Q: And the GI50 [43]?
A: 1770 nM

Q: And the TGI [43]?
A: 3200 nM

Q: And the GI50 [44]?
A: 1810 nM

Q: What about the TGI [44] of the same molecule?
A: 3300 nM

Q: And the GI50 [45]?
A: 1940 nM

Q: And the TGI [45]?
A: 3690 nM

Q: And the GI50 [46]?
A: 2050 nM

Q: And the TGI [46]?
A: 4590 nM

Q: What about the GI50 [47] of the same molecule?
A: 1390 nM

Q: What about the TGI [47] of the same molecule?
A: 2750 nM

Q: And the GI50 [48]?
A: 1760 nM

Q: And the TGI [48]?
A: 5230 nM

Q: And the GI50 [49]?
A: 1750 nM

Q: And the TGI [49]?
A: 3300 nM

Q: And the GI50 [50]?
A: 1790 nM

Q: And the TGI [50]?
A: 3780 nM

Q: And the GI50 [51]?
A: 1940 nM

Q: What about the TGI [51] of the same molecule?
A: 3960 nM

Q: And the GI50 [52]?
A: 1730 nM

Q: And the TGI [52]?
A: 3410 nM

Q: And the GI50 [53]?
A: 1660 nM

Q: What about the TGI [53] of the same molecule?
A: 3220 nM

Q: And the GI50 [54]?
A: 1810 nM

Q: And the TGI [54]?
A: 3540 nM

Q: And the GI50 [55]?
A: 1520 nM

Q: What about the TGI [55] of the same molecule?
A: 3030 nM
